Experimental data as given in PMC5908784, “Extracellular loops 2 and 3 of the calcitonin receptor selectively modify agonist binding and efficacy” (Biochemical Pharmacology, 2018).
Numbering of substitutions follows the chain as printed. Where a SMILES comes first, the peptide text is derived from it. Bridges are numbered along the chain shown (N, C = ends).

Assays:
Experiment in all cases: ERK1/2 phosphorylation
Assay type in all cases: cell-based
[1] = molecular target: T1, hCTR V283A (Homo sapiens, UniProt P30988, V283A); details: CV1-FlpIn cells, mean ± S.E.M.; for Emax: pERK maximal response; for EC50: pERK, three-parameter logistic fit
T1 construct: expressed in transfected cells
T1 sequence (P30988 25-474 V283A): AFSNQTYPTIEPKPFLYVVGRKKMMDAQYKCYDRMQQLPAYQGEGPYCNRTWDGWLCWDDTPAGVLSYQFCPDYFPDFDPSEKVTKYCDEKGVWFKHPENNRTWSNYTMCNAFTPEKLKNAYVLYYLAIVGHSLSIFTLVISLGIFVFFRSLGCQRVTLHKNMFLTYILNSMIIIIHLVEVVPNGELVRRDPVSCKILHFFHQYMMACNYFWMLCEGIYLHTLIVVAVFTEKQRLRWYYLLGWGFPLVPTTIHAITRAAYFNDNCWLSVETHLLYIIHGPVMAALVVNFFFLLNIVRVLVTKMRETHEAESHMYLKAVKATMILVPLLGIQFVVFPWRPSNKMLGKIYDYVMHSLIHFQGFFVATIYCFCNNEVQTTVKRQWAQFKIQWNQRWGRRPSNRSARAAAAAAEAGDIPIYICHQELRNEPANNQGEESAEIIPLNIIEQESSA
Method in brief: (§1)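 Cells were seeded at 2.5 × 10^4 cells/well and cultured overnight before stimulation. ERK1/2 phosphorylation was normalized to the maximal response to 10% FBS measured at 6 min. EC50 and Emax came from a 3-parameter logistic fit of concentration-response curves.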

[2] = molecular target: T2, hCTR Y374A (Homo sapiens, UniProt P30988, Y374A); details: CV1-FlpIn cells, mean ± S.E.M.; for Emax: pERK maximal response; for EC50: pERK, three-parameter logistic fit
T2 construct: c-Myc (N); expressed in transfected cells
T2 sequence (P30988 25-474 Y374A): T1 sequence (P30988 25-474 V283A) with A259V, Y350A
Method in brief: as §1

[3] = molecular target: T3, hCTR P360A (Homo sapiens, UniProt P30988, P360A); details: CV1-FlpIn cells, mean ± S.E.M.; for Emax: pERK maximal response
T3 construct: expressed in transfected cells
T3 sequence (P30988 25-474 P360A): T1 sequence (P30988 25-474 V283A) with A259V, P336A
Method in brief: as §1

[4] = molecular target: T4, hCTR C289A (Homo sapiens, UniProt P30988, C289A); details: CV1-FlpIn cells, mean ± S.E.M.; for Emax: pERK maximal response
T4 construct: c-Myc (N); expressed in transfected cells
T4 sequence (P30988 25-474 C289A): T1 sequence (P30988 25-474 V283A) with A259V, C265A
Method in brief: as §1

[5] = molecular target: T5, hCTR L291A (Homo sapiens, UniProt P30988, L291A); details: CV1-FlpIn cells, mean ± S.E.M.; for Emax: pERK maximal response
T5 construct: expressed in transfected cells
T5 sequence (P30988 25-474 L291A): T1 sequence (P30988 25-474 V283A) with A259V, L267A
Method in brief: as §1

[6] = pERK, three-parameter logistic fit

With `CC(C)C[C@H](NC(=O)CNC(=O)[C@H](C)NC(=O)[C@H](CC(C)C)NC(=O)[C@H](CCCNC(=N)N)NC(=O)[C@H](Cc1cnc[nH]1)NC(=O)[C@@H](NC(=O)[C@@H](NC(=O)[C@@H]1CSSC[C@H](NC(=O)[C@H](C)N)C(=O)N[C@@H](CC(=O)O)C(=O)N[C@@H]([C@@H](C)O)C(=O)N[C@@H](C)C(=O)N[C@@H]([C@@H](C)O)C(=O)N1)C(C)C)[C@@H](C)O)C(=O)N[C@@H](CC(C)C)C(=O)N[C@@H](CO)C(=O)N[C@@H](CCCNC(=N)N)C(=O)N[C@@H](CO)C(=O)NCC(=O)NCC(=O)N[C@H](C(=O)N[C@H](C(=O)N[C@@H](CCCCN)C(=O)N[C@@H](CC(N)=O)C(=O)N[C@@H](CC(N)=O)C(=O)N[C@@H](Cc1ccccc1)C(=O)N[C@H](C(=O)N1CCC[C@H]1C(=O)N[C@H](C(=O)N[C@@H](CC(N)=O)C(=O)N[C@H](C(=O)NCC(=O)N[C@@H](CO)C(=O)N[C@@H](CCCCN)C(=O)N[C@@H](C)C(=O)N[C@@H](Cc1ccccc1)C(N)=O)C(C)C)[C@@H](C)O)C(C)C)C(C)C)C(C)C` [hαCGRP] as the compound, how does the Emax [1] read?
Its Emax is 81 ± 7%.

What about the EC50 [1] of the same compound?
Its EC50 is 60.3 nM.

And the Emax [2]?
Its Emax is 49 ± 8%.

What about the EC50 [2] of the same compound?
The EC50 was 61.7 nM.

`CC[C@H](C)[C@H](NC(=O)[C@H](C)NC(=O)[C@@H](NC(=O)[C@H](CCC(N)=O)NC(=O)[C@@H]1CCCN1C(=O)[C@H](Cc1ccccc1)NC(=O)[C@@H](NC(=O)[C@H](Cc1c[nH]cn1)NC(=O)[C@H](Cc1ccccc1)NC(=O)[C@H](CCCCN)NC(=O)[C@H](CC(N)=O)NC(=O)[C@H](Cc1ccccc1)NC(=O)[C@H](CC(=O)O)NC(=O)[C@H](CCC(N)=O)NC(=O)[C@@H](NC(=O)[C@H](Cc1ccc(O)cc1)NC(=O)[C@@H](NC(=O)CNC(=O)[C@H](CC(C)C)NC(=O)[C@H](CCSC)NC(=O)[C@@H]1CSSC[C@H](N)C(=O)NCC(=O)N[C@@H](CC(N)=O)C(=O)N[C@@H](CC(C)C)C(=O)N[C@@H](CO)C(=O)N[C@@H]([C@@H](C)O)C(=O)N1)[C@@H](C)O)[C@@H](C)O)[C@@H](C)O)[C@@H](C)O)C(=O)NCC(=O)N[C@H](C(=O)NCC(=O)N[C@@H](C)C(=O)N1CCC[C@H]1C(N)=O)C(C)C` [hCT] was tested. Which Emax [3] did it give?
Its Emax is 51 ± 6%.

And the Emax [1]?
The Emax was 155 ± 14%.

What about the Emax [4] of the same compound?
The Emax was 40 ± 8%.

What about the Emax [5] of the same compound?
The Emax was 72 ± 9%.

What about the Emax [2] of the same compound?
Its Emax is 94 ± 4%.

Which Emax [1] does the source give for `CC(C)C[C@H](NC(=O)[C@H](CC(N)=O)NC(=O)[C@H](CC(N)=O)NC(=O)[C@H](CO)NC(=O)[C@H](CO)NC(=O)[C@H](CCCNC(=N)N)NC(=O)[C@@H](NC(=O)[C@H](CC(C)C)NC(=O)[C@H](Cc1ccccc1)NC(=O)[C@H](CC(N)=O)NC(=O)[C@H](C)NC(=O)[C@H](CC(C)C)NC(=O)[C@H](CCCNC(=N)N)NC(=O)[C@H](CCC(N)=O)NC(=O)[C@@H](NC(=O)[C@H](C)NC(=O)[C@@H]1CSSC[C@H](NC(=O)[C@@H](N)CCCCN)C(=O)N[C@@H](CC(N)=O)C(=O)N[C@@H]([C@@H](C)O)C(=O)N[C@@H](C)C(=O)N[C@@H]([C@@H](C)O)C(=O)N1)[C@@H](C)O)C(C)C)C(=O)NCC(=O)N1CCC[C@H]1C(=O)N[C@H](C(=O)N[C@@H](CC(C)C)C(=O)N1CCC[C@H]1C(=O)N1CCC[C@H]1C(=O)N[C@H](C(=O)N[C@@H](CC(N)=O)C(=O)N[C@H](C(=O)NCC(=O)N[C@@H](CO)C(=O)N[C@@H](CC(N)=O)C(=O)N[C@H](C(=O)N[C@@H](Cc1ccc(O)cc1)C(N)=O)[C@@H](C)O)C(C)C)[C@@H](C)O)C(C)C` [rAmy] here?
The Emax was 83 ± 9%.

What about the Emax [5] of the same compound?
Its Emax is 41 ± 4%.

And the Emax [2]?
The Emax was 61 ± 5%.

What does the source list for `CSCC[C@H](NC(=O)CNC(=O)[C@H](CO)NC(=O)[C@H](Cc1ccccc1)NC(=O)[C@H](CCCNC(=N)N)NC(=O)[C@H](Cc1c[nH]cn1)NC(=O)[C@H](Cc1ccccc1)NC(=O)[C@H](CC(N)=O)NC(=O)[C@H](CC(N)=O)NC(=O)[C@H](CC(C)C)NC(=O)[C@H](CC(N)=O)NC(=O)[C@H](CCCNC(=N)N)NC(=O)[C@H](Cc1c[nH]c2ccccc12)NC(=O)[C@H](Cc1ccc(O)cc1)NC(=O)[C@H](C)NC(=O)[C@H](CO)NC(=O)[C@H](CC(C)C)NC(=O)[C@@H](NC(=O)[C@@H]1CSSC[C@H](N)C(=O)N[C@@H](CO)C(=O)N[C@@H](CC(N)=O)C(=O)N[C@@H](CC(C)C)C(=O)N[C@@H](CO)C(=O)N[C@@H]([C@@H](C)O)C(=O)N1)C(C)C)C(=O)NCC(=O)N[C@@H](Cc1ccccc1)C(=O)NCC(=O)N1CCC[C@H]1C(=O)N[C@@H](CCC(=O)O)C(=O)N[C@H](C(=O)N1CCC[C@H]1C(N)=O)[C@@H](C)O` [pCT] (H-CSNLSTCVLSAYWRNLNNFHRFSGMGFGPETP-NH2; disulfide 1-7)?
Emax [3]: 59 ± 7%; EC50 [3, 6]: 39.8 nM; Emax [1]: 109 ± 12%; EC50 [1]: 2.24 nM; Emax [4]: 38 ± 4%; EC50 [4, 6]: 4.27 nM; Emax [5]: 77 ± 5%; EC50 [5, 6]: 9.55 nM; Emax [2]: 105 ± 8%; EC50 [2]: 2.69 nM

`CC(C)C[C@H](NC(=O)[C@H](CCCCN)NC(=O)CNC(=O)[C@H](CC(C)C)NC(=O)[C@@H](NC(=O)[C@@H]1CSSC[C@H](N)C(=O)N[C@@H](CO)C(=O)N[C@@H](CC(N)=O)C(=O)N[C@@H](CC(C)C)C(=O)N[C@@H](CO)C(=O)N[C@@H]([C@@H](C)O)C(=O)N1)C(C)C)C(=O)N[C@@H](CO)C(=O)N[C@@H](CCC(N)=O)C(=O)N[C@@H](CCC(=O)O)C(=O)N[C@@H](CC(C)C)C(=O)N[C@@H](Cc1c[nH]cn1)C(=O)N[C@@H](CCCCN)C(=O)N[C@@H](CC(C)C)C(=O)N[C@@H](CCC(N)=O)C(=O)N[C@H](C(=O)N[C@@H](Cc1ccc(O)cc1)C(=O)N1CCC[C@H]1C(=O)N[C@@H](CCCNC(=N)N)C(=O)N[C@H](C(=O)N[C@@H](CC(N)=O)C(=O)N[C@H](C(=O)NCC(=O)N[C@@H](CO)C(=O)NCC(=O)N[C@H](C(=O)N1CCC[C@H]1C(N)=O)[C@@H](C)O)[C@@H](C)O)[C@@H](C)O)[C@@H](C)O` [sCT] was tested. Which Emax [3] did it give?
Its Emax is 115 ± 9%.

And the Emax [1]?
The Emax was 133 ± 10%.

And the Emax [4]?
The Emax was 64 ± 11%.

And the Emax [5]?
The Emax was 107 ± 5%.

And the Emax [2]?
The Emax was 99 ± 5%.
